Experimental data: patent US20240368191A1, “HETEROCYCLIC COMPOUNDS AND USES THEREOF” (Kumquat Biosciences Inc., priority 2021, published 2024)

Tests used:
[1] = biological target: T1, KRAS G12D 1-169 (His-tagged, GDP-loaded) (Homo sapiens, UniProt P01116, G12D); experiment: Covalent modification of KRAS protein by intact-protein LC-MS; type: binding; conditions: comparable or same conditions as K-Ras G12S
T1 construct: His -tagged GDP-loaded G12D 1-169; made in house; host or cells: E. coli, e.g. BL21 (DE3)
T1 sequence (P01116 1-169 isoform P01116-2 G12D): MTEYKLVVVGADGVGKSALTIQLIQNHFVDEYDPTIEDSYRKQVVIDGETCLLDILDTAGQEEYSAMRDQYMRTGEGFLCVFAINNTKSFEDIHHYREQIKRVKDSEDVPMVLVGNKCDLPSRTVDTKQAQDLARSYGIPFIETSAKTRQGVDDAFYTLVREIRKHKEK
Procedure, shortened: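 Percent modification is derived from deconvoluted intact-protein LC-ESI-MS peak intensities of adducted versus unmodified KRAS. GDP-loaded His-tagged KRAS 1-169 (~2 μM, HEPES buffer at physiological conditions) was exposed to compound for 24 hrs at room temperature, then quenched with formic acid before C4 reversed-phase separation.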

[2] = Metabolic (microsomal) stability assay; conditions: pooled liver microsomes, pH 7.4

Structure (SMILES) | covalent labeling of K-Ras G12D [1] | half-life at 0.5 μM [2] [min]
Nc1nc2c(-c3c(Cl)cc4c(N5CCOC6(CCN(C(=O)n7cncn7)C6)C5)nc(OC[C@@]56CCCN5C[C@H](F)C6)nc4c3F)ccc(F)c2s1 (stereo partly drawn) [Compound A221, (9-(7-(2-amino-7-fluorobenzo-[d]thiazol-4-yl)-6-chloro-8-fluoro-2-(((2R,7aS)-2-fluoro-tetrahydro-1H-pyrrolizin-7a(5H)-yl)methoxy)quinazolin-4-yl)-6-oxa-2,9-diazaspiro[4.5]-decan-2-yl)(1H-1,2,4-triazol-1-yl)methanone] | essentially no detectable labeling | > 10
CN1CCC[C@H]1COc1nc(N2CCOC3(CN(C(=O)n4cncn4)C3)C2)c2cc(Cl)c(-c3ccc(F)c4sc(N)c(C#N)c34)c(F)c2n1 [Compound A182, 4-(4-(2-(1H-1,2,4-triazole-1-carbonyl)-5-oxa-2,8-diazaspiro-[3.5]nonan-8-yl)-6-chloro-8-fluoro-2-(((S)-1-methylpyrrol-idin-2-yl)methoxy)quinazolin-7-yl)-2-amino-7-fluorobenzo-[b]thiophene-3-carbonitrile] | essentially no detectable labeling | > 10
N#Cc1c(N)sc2c(F)ccc(-c3c(Cl)cc4c(O[C@@H]5CCN(C(=O)n6cncn6)C5)nc(OCC56CCCN5C[C@H](F)C6)nc4c3F)c12 (stereo partly drawn) [Compound A213, 4-(4-(((R)-1-(1H-1,2,4-triazole-1-carbonyl)pyrrolidin-3-yl)oxy)-6-chloro-8-fluoro-2-(((2R)-2-fluorotetrahydro-1H-pyrrolizin-7a(5H)-yl)methoxy)quinazolin-7-yl)-2-amino-7-fluorobenzo-[b]thiophene-3-carbonitrile] | essentially no detectable labeling | > 10
CN(C)C1CN(c2nc(N3CCOC4(CN(C(=O)n5cncn5)C4)C3)c3cc(Cl)c(-c4ccc(F)c5sc(N)c(C#N)c45)c(F)c3n2)C1 [Compound A256, 4-(4-(2-(1H-1,2,4-triazole-1-carbonyl)-5-oxa-2,8-diazaspiro[3.5]nonan-8-yl)-6-chloro-2-(3-(dimethylamino)azetidin-1-yl)-8-fluoroquinazolin-7-yl)-2-amino-7-fluorobenzo[b]thiophene-3-carbonitrile] | essentially no detectable labeling | > 10
CC1(C)CN(c2nc(OC[C@@]34CCCN3C[C@H](F)C4)nc3c(F)c(-c4ccc(F)c5sc(N)c(C#N)c45)c(Cl)cc23)CC2(CN(C(=O)n3cncn3)C2)O1 [Compound A296, 2-amino-4-(6-chloro-4-(6,6-dimethyl-2-(1H-1,2,4-triazole-1-carbonyl)-5-oxa-2,8-diaza-spiro[3.5]nonan-8-yl)-8-fluoro-2-(((2R,7aS)-2-fluorotetrahydro-1H-pyrrolizin-7a(5H)-yl)meth-oxy)quinazolin-7-yl)-7-fluoro-benzo[b]thiophene-3-carbonitrile] | essentially no detectable labeling | > 10
C[C@H](Oc1nc(N2CCCCC3(CN(C(=O)n4cncn4)C3)C2)c2cc(Cl)c(-c3ccc(F)c4sc(N)c(C#N)c34)c(F)c2n1)[C@@H]1CCCN1C [Compound A219, 4-(4-(2-(1H-1,2,4-triazole-1-carbonyl)-2,6-diazaspiro[3.6]-decan-6-yl)-6-chloro-8-fluoro-2-((S)-1-((S)-1-methylpyrrol-idin-2-yl)ethoxy)quinazolin-7-yl)-2-amino-7-fluorobenzo-[b]thiophene-3-carbonitrile] | essentially no detectable labeling | > 10
